Here are results for 5 molecules from US9169217B2, “Arylalkyl esters of 4-amino-6-(substituted phenyl)-picolinates and 6-amino-2-(substituted phenyl)-pyrimidinecarboxylates and their use as selective herbicides for crops” (Dow AgroSciences LLC, priority 2011, dated 2015).

Data set [1] deals with Matricaria chamomilla (Mayweed, wild). The data set is described as follows: Postemergence herbicidal activity in cereal crops (Example 14). The data set is classed as in vivo. To be noted: wheat cropping systems, postemergence spray, 35 g ae/ha, 21 DAA. The procedure:
(§1) Seeds of the desired test plant species were planted in Sun Gro Metro-Mix® 360 planting mixture, which typically has a pH of 6.0 to 6.8 and an organic matter content of about 30 percent, in plastic pots with a surface area of 84.6 cm^2. When required to ensure good germination and healthy plants, a fungicide treatment and/or other chemical or physical treatment was applied. The plants were grown for 7-36 d in a greenhouse with an approximate 14 h photoperiod which was maintained at about 18° C. during the day and 17° C. during the night. Nutrients and water were added on a regular basis and supplemental lighting was provided with overhead metal halide 1000-Watt lamps as necessary. The plants were employed for testing when they reached the second or third true leaf stage.
(§2) Treatments consisted of esters of compounds 33, 34, 39, 40 and 42 and B, F, G and H. Compound B is methyl 4-amino-3-chloro-6-(4-cyclopropylphenyl)-5-fluoropicolinate; compound F is methyl 6-amino-2-(4-chloro-2-fluoro-3-methoxyphenyl)-5-methoxypyrimidine-4-carboxylate; compound G is methyl 4-amino-3-chloro-6-(4-chloro-2-fluoro-3-methoxyphenyl)picolinate; and compound H is methyl 4-amino-3-chloro-6-(4-chloro-2-fluoro-3-(1-fluoroethyl)phenyl)-5-fluoropicolinate. A weighed amount, determined by the highest rate to be tested, of each test compound was placed in a 25 mL glass vial and was dissolved in 8 mL of a 97:3 v/v mixture of acetone and DMSO to obtain concentrated stock solutions. […] The concentrated stock solutions obtained were diluted with 16 mL of an aqueous mixture containing acetone, water, isopropyl alcohol, DMSO, Agri-dex crop oil concentrate, and Triton® X-77 surfactant in a 64.7:26.0:6.7:2.0:0.7:0.01 v/v ratio to obtain spray solutions containing the highest application rates. Additional application rates were obtained by serial dilution of 12 mL of the high rate solution into a solution containing 4 mL of a 97:3 v/v mixture of acetone and DMSO and 8 mL of an aqueous mixture containing acetone, water, isopropyl alcohol, DMSO, Agri-dex crop oil concentrate, and Triton® X-77 surfactant in a 48.5:39.0:10.0:1.5:1.0:0.02 v/v ratio to obtain ½×, ¼×, ⅛× and 1/16× rates of the high rate. Compound requirements are based upon a 12 mL application volume at a rate of 187 L/ha. Formulated compounds were applied to the plant material with an overhead Mandel track sprayer equipped with 8002E nozzles calibrated to deliver 187 L/ha over an application area of 0.503 m^2 at a spray height of 18 inches (43 cm) above average plant canopy height. Control plants were sprayed in the same manner with the blank.
(§3) The treated plants and control plants were placed in a greenhouse as described above and watered by sub-irrigation to prevent wash-off of the test compounds. After 20-22 d, the condition of the test plants as compared with that of the untreated plants was determined visually and scored on a scale of 0 to 100 percent where 0 corresponds to no injury and 100 corresponds to complete kill.

For data set [2], the system named is Setaria viridis (Foxtail, green). The data set is described as above. To be noted: wheat cropping systems, postemergence spray, 17.5 g ae/ha, 21 DAA. The data set is classed as in vivo. The method, then:
as §1, §2, §3

The test system of data set [3] is Lolium multiflorum (Ryegrass, Italian). The data set is described as above. It is filed as in vivo. To be noted: wheat cropping systems, postemergence spray, 17.5 g ae/ha, 21 DAA. The method, then:
as §1, §2, §3

The test system of data set [4] is Avena fatua (Oat, wild). The description is as above. The data set is classed as in vivo. To be noted: wheat cropping systems, postemergence spray, 35 g ae/ha, 21 DAA. The procedure:
as §1, §2, §3

Data set [5] deals with Pennisetum glaucum (Foxtail, yellow). Described as above. To be noted: wheat cropping systems, postemergence spray, 8.75 g ae/ha, 21 DAA. The data set is classed as in vivo. The method, then: as §1, §2, §3
For data set [6], the system named is Brassica sinapis (Mustard, wild). The data set is described as above. It is filed as in vivo. To be noted: wheat cropping systems, postemergence spray, 8.75 g ae/ha, 21 DAA. The method, then:
as §1, §2, §3

Data set [7] concerns Veronica persica (Speedwell, birdseye). The description is as above. It is filed as in vivo. Particulars: wheat cropping systems, postemergence spray, 8.75 g ae/ha, 21 DAA. The procedure:
as §1, §2, §3

The test system of data set [8] is Echinochloa colonum (L.) LINK (junglerice). The data set is described as follows: Postemergence foliar-applied herbicidal activity in direct seeded rice (Example 16). The data set is classed as in vivo. Particulars: Echinochloa colona, post-emergence, 504 h, rice cropping systems, 17.5 g ae/ha, 21 DAA, may represent multiple trials, read-out: Visual Injury (%) ECHCO. The procedure, abridged: (§4)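 Greenhouse plants at 2nd–3rd true leaf stage (10–17 d, ~29/26 °C, 14-h photoperiod) sprayed postemergence with ester forms in acetone–DMSO plus 1.25% crop oil concentrate at 187 L/ha. Visual injury scored 0–100% versus untreated plants after 3 weeks; GR50/GR80 derived by probit analysis.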

The test system of data set [9] is Sesbania exaltata (RAF.) CORY/RYDB. (hemp sesbania). The data set is described as above. It is filed as in vivo. Particulars: rice cropping systems, 17.5 g ae/ha, 21 DAA, may represent multiple trials. The procedure, abridged: as §4
The test system of data set [10] is Cyperus iria L. (rice flatsedge). Described as above. It is filed as in vivo. Particulars: rice cropping systems, 17.5 g ae/ha, 21 DAA, may represent multiple trials. A digest of the protocol:
as §4

Data set [11] concerns Aeschynomene sensitive SW./L. (sensitive jointvetch). The data set is described as above. It is filed as in vivo. To be noted: rice cropping systems, 17.5 g ae/ha, 21 DAA, may represent multiple trials. The procedure, abridged:
as §4

Data set [12] concerns Scirpus juncoides ROXB. (Japanese bulrush). Described as above. It is filed as in vivo. To be noted: Schoenoplectiella juncoides, post-emergence, 504 h; rice cropping systems, foliar-applied, 17.5 g ae/ha, 21 DAA; may represent multiple trials; read-out: Visual Injury (%) SCPJU. The procedure, abridged: as §4
For data set [13], the system named is Cyperus esculentus L. (yellow nutsedge). The description is as above. Particulars: rice cropping systems, 17.5 g ae/ha, 21 DAA, may represent multiple trials. The data set is classed as in vivo. A digest of the protocol: as §4
The test system of data set [14] is Echinochloa crus-galli (L.) P.BEAUV. (barnyardgrass). The description is as above. The data set is classed as in vivo. To be noted: rice cropping systems, 17.5 g ae/ha, 21 DAA, may represent multiple trials. A digest of the protocol: as §4
In data set [15] the test system is Scirpus juncoides ROXB. (Japanese bulrush). The data set is described as follows: In-water applied herbicidal activity in transplanted paddy rice (Example 17). The data set is classed as in vivo. Particulars: Schoenoplectiella juncoides, 504 h; rice cropping systems, in-water applied (paddy), 35 g ae/ha, 21 DAA; may represent multiple trials; read-out: Visual Injury (%) SCPJU. The procedure, abridged:
(§5)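 Ester forms of test compounds, in acetone diluted with aqueous Agri-dex (final 1.25% v/v crop oil concentrate), were injected into the flood water of paddy pots holding weeds or rice at the 2nd–3rd leaf stage in mud (pH ~7.3–7.8). Visual injury versus untreated plants was scored 0–100% after 3 weeks in greenhouse (~29/26 °C). GR50/GR80 were derived by probit analysis.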

The test system of data set [16] is Echinochloa crus-galli (L.) P.BEAUV. (barnyardgrass). The data set is described as above. The data set is classed as in vivo. Particulars: Echinochloa crus-galli, 504 h; rice cropping systems, in-water applied (paddy), 35 g ae/ha, 21 DAA; may represent multiple trials; read-out: Visual Injury (%) ECHCG. A digest of the protocol: as §5

Consider `COc1c(N)nc(-c2ccc(Cl)c(OC)c2F)nc1C(=O)OCCc1ccccc1` [Compound 34], for which the “Visual Injury (%) MATCH” value in data set [1] was 20%. The “Visual Injury (%) SETVI” value in data set [2] was 80%. For the same molecule, the “Visual Injury (%) LOLMU” value in data set [3] is on record as 70%. Besides, in [4], the “Visual Injury (%) AVEFA” value turned out to be 40%.
As to `CC(F)c1c(Cl)ccc(-c2nc(C(=O)OCc3ccccc3)c(Cl)c(N)c2F)c1F` (stereo not drawn) [Compound 40, benzyl 4-amino-3-chloro-6-(4-chloro-2-fluoro-3-(1-fluoroethyl)phenyl)-5-fluoropicolinate], the “Visual Injury (%) PESGL” value in data set [5] is 65%. The “Visual Injury (%) SINAR” value in [6] came to 98%. In data set [7], the “Visual Injury (%) VERPE” value is 95%.
As usually defined, the melting point is the temperature of the solid-liquid transition. In the case of `CCOc1c(Cl)ccc(-c2nc(C(=O)OC)c(Cl)c(N)c2F)c1F` [Compound A, methyl 4-amino-3-chloro-6-(4-chloro-3-ethoxy-2-fluorophenyl)-5-fluoropicolinate], the melting point fell in the range of 170 to 172 °C. Besides, in [8], the pest or weed control at 17.5 g/ha worked out at 50%. Further, the “Visual Injury (%) SEBEX” value in [9] is recorded as 20%. The “Visual Injury (%) CYPIR” value in [10] worked out at 80%. The “Visual Injury (%) AESSE” value in data set [11] was determined as 0%. In addition, the pest or weed control at 17.5 g/ha in [12] came out at 20%. The “Visual Injury (%) CYPES” value in data set [13] turned out to be 60%. Besides, the “Visual Injury (%) ECHCG” value in data set [14] came out at 60%. The pest or weed control at 35 g/ha in data set [15] was found to be 60%. The pest or weed control at 35 g/ha in data set [16] turned out to be 40%.
`COC(=O)c1nc(-c2ccc(Cl)c(C(C)F)c2F)c(F)c(N)c1Cl` (stereo not drawn) [Compound H, methyl 4-amino-3-chloro-6-(4-chloro-2-fluoro-3-(1-fluoroethyl)phenyl)-5-fluoropicolinate, reference compound]: in [5], the “Visual Injury (%) PESGL” value is reported as 0%. Besides, the “Visual Injury (%) SINAR” value in data set [6] is recorded as 87%. The “Visual Injury (%) VERPE” value in [7] turned out to be 80%.
`CCOc1c(Cl)ccc(-c2nc(C(=O)OCc3ccccc3)c(Cl)c(N)c2F)c1F` [Compound 41, benzyl 4-amino-3-chloro-6-(4-chloro-3-ethoxy-2-fluorophenyl)-5-fluoropicolinate] came in with a melting point of 122 to 124 °C. In data set [8], the pest or weed control at 17.5 g/ha is 95%. Also, in data set [9], the “Visual Injury (%) SEBEX” value turned out to be 99%. Also, the “Visual Injury (%) CYPIR” value in data set [10] is listed as 100%. For the same molecule, the “Visual Injury (%) AESSE” value in data set [11] is reported as 100%. For the same molecule, the pest or weed control at 17.5 g/ha in [12] is 90%. For the same molecule, in data set [13], the “Visual Injury (%) CYPES” value is 100%. Also, the “Visual Injury (%) ECHCG” value in [14] is given as 95%. The pest or weed control at 35 g/ha in data set [15] worked out at 100%. Further, in data set [16], the pest or weed control at 35 g/ha turned out to be 95%.
